Data published in ChEMBL document CHEMBL5241073, “Pharmacological Targeting of Executioner Proteins: Controlling Life and Death” (J Med Chem, 2021).

Biological target: Apoptosis regulator BAX (Homo sapiens, UniProt Q07812)
Experiment: Inhibition of recombinant human BAX expressed in Escherichia coli BL21 (DE3) assessed as inhibition of liposome permeabilization and measured for 2 hrs by fluorescence analysis

Apoptosis regulator BAX, sequence (Q07812 whole entry): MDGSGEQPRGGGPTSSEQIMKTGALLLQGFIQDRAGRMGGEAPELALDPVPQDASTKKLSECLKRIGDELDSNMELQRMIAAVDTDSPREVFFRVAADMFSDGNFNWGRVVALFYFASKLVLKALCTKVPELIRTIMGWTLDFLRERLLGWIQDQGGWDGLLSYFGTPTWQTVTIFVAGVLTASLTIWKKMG

| SMILES | IC50 |
| --- | --- |
| COCCOCOc1ccc2c(c1)O[C@H](CN(Cc1ccc(Br)cc1)C(=O)[C@H](Cc1ccccc1)NC(=O)c1ccccc1)[C@H]2N | 4 µM |
| COCCOCOc1ccc2c(c1)O[C@H](CN)[C@H]2N(Cc1ccc(Br)cc1)C(=O)[C@H](Cc1ccccc1)NC(=O)c1ccccc1 | 6 µM |
